{
  "source": "patent US4634712A",
  "about": "“Antihypertensive esters of 1,4-dihydro-2,6-dimethyl-3-(alkoxycarbonyl or alkoxyalkoxycarbonyl)-4-(substituted phenyl)-pyridine-5-carboxylic acid” (Recordati S.A., priority 1984, dated 1987)",
  "key": {"[1]": {"test_system": "male hypertensive rats (SHR, Wister-Kyoto strain)", "test": "Antihypertensive activity in male hypertensive rats (SHR), systolic blood pressure by tail-cuff", "format": "in vivo", "details": "Rattus norvegicus, po, os, 0.5% methylcellulose, measured 1, 3, 5 and 7 hours after administration", "description": "The antihypertensive activity of the esters according to the invention was evaluated in male hypertensive rats (SHR, Wister-Kyoto strain, 15-25 weeks old). The determination of blood pressure was performed by an indirect method (M. Gerald et al., Arzneim, Forsch., 18, 1825, 1968). The animals were prewarmed in a heating chamber at a temperature of from 35° to 37° C. for a period of 15 minutes before pressure determination. The compounds tested by oral route were dissolved or suspended in a 0.5% methylcellulose solution. Controls were given only the vehicle. Systolic blood pressure and heart rate were measured 1, 3, 5 and 7 hours after drug administration by means of a tail-cuff and a pulse transducer."}, "[2]": {"test_system": "methacholine induced coronary spasm", "test": "Coronary dilating activity in anesthetized normotensive rats, antagonism of methacholine induced coronary spasm", "format": "in vivo", "details": "Rattus norvegicus, iv infusion, water:dimethylformamide 9:1", "description": "Coronary dilating activity was evaluated in anesthetized normotensive rats (weighing about 500 g), as the ability to antagonize methacholine induced coronary spasm. Rats were instrumented for methacholine infusion into the coronary ostium, while spastic activity was detected as ST segment elevation in D2 ECG recording (K. Sakai et al., J. Pharm. Meth., 5, 325, 1981). The compounds tested by i.v. infusion were dissolved in water:dimethylformamide (9:1 by volume). Activity was detected as normalization of ECG tracing after compounds administration during methacholine infusion."}, "[3]": {"test": "LD50 in the mouse per os (method of C. S. Weil)", "details": "in vivo, po", "description": "The LD50 of the compounds according to the invention was determined in the mouse per os, according to the method described by C. S. Weil (Biometrics, 8, 249, 1952)."}},
  "data": [
    {"smiles": "COC(=O)C1=C(C)NC(C)=C(C(=O)OCCN(C)CCCC(C#N)(c2ccc(OC)c(OC)c2)C(C)C)C1c1cccc([N+](=O)[O-])c1", "note": "(centres unmarked) [Compound 2245, Methyl 2-[4-cyano-4-(3,4-dimethoxyphenyl)-5,N-dimethyl-hexylamino]-ethyl 1,4-dihydro-2,6-dimethyl-4-(3-nitrophenyl)-pyridine-3,5-dicarboxylate]", "values": [
      {"measurement": "ED25", "setting": "[1]", "result": 6.8, "unit": "mg/kg"},
      {"measurement": "ED50", "setting": "[2]", "result": 0.301, "unit": "mg/kg"},
      {"measurement": "LD50", "setting": "[3]", "result": 278, "unit": "mg/kg"}
    ]},
    {"smiles": "COc1ccc(C(C#N)(CCCN(C)CC(C)OC(=O)C2=C(C)NC(C)=C(C(=O)OCC(C)C)C2c2cccc(Cl)c2Cl)C(C)C)cc1OC", "note": "(centres unmarked) [Compound 2392, Isobutyl 2-[4-cyano-4-(3,4-dimethoxyphenyl)-5,N-dimethyl-hexylamino]-1-methylethyl 1,4-dihydro-2,6-dimethyl-4-(2,3-dichlorophenyl)-pyridine-3,5-dicarboxylate]", "values": [
      {"measurement": "ED25", "setting": "[1]", "result": 14.9, "unit": "mg/kg"}
    ]},
    {"smiles": "CCCOCCOC(=O)C1=C(C)NC(C)=C(C(=O)OC(C)CN(C)CCCC(C#N)(c2ccc(OC)c(OC)c2)C(C)C)C1c1cccc(Cl)c1Cl", "note": "(centres unmarked) [Compound 2404, 2-Propoxy-ethyl 2-[4-cyano-4-(3,4-dimethoxyphenyl)-5,N-dimethyl-hexylamino]-1-methylethyl 1,4-dihydro-2,6-dimethyl-4-(2,3-dichlorophenyl)-pyridine-3,5-dicarboxylate]", "values": [
      {"measurement": "ED25", "setting": "[1]", "result": 17.8, "unit": "mg/kg"}
    ]}
  ]
}
